Data: article PMC10167355, “Optimized spirooxindole-pyrazole hybrids targeting the p53-MDM2 interplay induce apoptosis and synergize with doxorubicin in A549 cells” (Scientific Reports, 2023)
“Also recorded” adds a separate entry of the source.

Key:
[1] = test system: A2780, A549, HepG2, MDA-MB-453; assay: MTT assay, panel of four human cancer cell lines taken together; type: cell-based; details: all four cell lines, 30 μM = arbitrary limit of pharmacological relevance
Description: After 6–8 h cells were treated with 20 μL containing five 1:10 fold concentrations of our compounds diluted in FCS containing 3% DMSO. As normal non-cancer cell targets we used peripheral blood lymphocytes obtained from three healthy volunteers, isolated by gradient centrifugation (Lympholyte-H Cell Separation Media, EuroClone, Pero, MI, Italy) and stimulated with 1% phytohemagglutinin and 100 U/ml recombinant IL-2. One week after stimulation cells were ready for use at 15,000/well. In both cases, after 72 h treatment, the MTT assay was applied as described elsewhere. […] IC100 and IC75 were extrapolated from the mean concentration–response curves.

A549 cells = assay: Annexin-V-FITC / propidium iodide apoptosis assay; type: cell-based, human; details: A549, compounds at their specific IC75s, three days
Description: The induction of apoptosis was evaluated in A549 cells characterized by wild-type p53 and MDM2 proteins. They were plated at the opportune concentration (see above) into 25 cm^2 flasks in 10 mL complete medium. After 6–8 h the compounds were added at their specific IC75s, as previously calculated by the MTT assay.
All floating and adherent cells were harvested three days later, washed with normal saline buffer, and apoptosis determined by double staining with Annexin-V-FITC and propidium iodide (PI) (rh AnnexinV/FITC Kit, Bender MedSystem GmbH, Vienna, Austria). Briefly, 0.5 × 10^6 cells were resuspended in binding buffer 1× and stained with 5 μL of Annexin-V-FITC. After 10 min incubation 10 μL of PI were added and samples incubated for 5 min. Samples were immediately analyzed using a Flow Cytometer (FACScan, BD Biosciences, Milano, Italy) with dedicated software.

p53 = assay: Western blot of p53 level in A549 cells; type: cell-based, human; details: for p53 level: A549, drug concentration equivalent to IC75 (30 µM), fold over mock; for p53 induction, dose–response: A549, 24 h, 0.01, 0.1, 1, 10 µM; for p53 level, single agent / p53 level, combined treatment compared to doxorubicin alone: A549; for p53 level, single agent: 0.2 µM derivative alone or 14 µM doxorubicin alone; for p53 level, combined treatment compared to doxorubicin alone: 0.2 µM derivative plus 14 µM doxorubicin
Description: (§1) A549 cells were treated with different concentrations of the molecules as indicated. Cell extracts were prepared as described. Ten-20 μg of total proteins were resolved on 4–15% Mini protean TGX precast gels (Bio-Rad) and transferred to nitrocellulose membrane using 1704158 Trans-Blot Turbo Mini NC Transfer Packs (Bio-Rad) in a Trans-Blot Turbo apparatus (Bio-Rad). Membranes were blocked with 5% non-fat dry milk in 0.1% Tween-20 in PBS for 1 h, then incubated for 1 h at room temperature or overnight at 4 °C with the appropriate primary antibody. The following antibodies were employed: anti-p53 (DO-1, sc-126, Santa Cruz Biotechnology, 1:20.000), anti-p21 (2946, Cell Signaling, 1:2000), anti-MDM2 (SMP14, sc-965, Santa Cruz Biotechnology, 1:200), anti β-actin (AC-74, Sigma-Aldrich, 1:30.000); secondary anti-mouse IgG peroxidase conjugate (A9044, Sigma–Aldrich, 1:10.000) and secondary anti-rabbit peroxidase conjugate (A9169, Sigma-Aldrich, 1: 12.000). Detection was carried out with ECL FAST PICO (ECL-1002, Immunological Sciences, Roma, Italy). Chemiluminescence was analysed by Alliance LD, UVITEC Cambridge (Cambridge, UK).

MDM2 = assay: Western blot of MDM2 level in A549 cells; type: cell-based, human; details: for MDM2 level: A549, drug concentration equivalent to IC75 (30 µM), fold over mock; for MDM2 level, single agent / MDM2 level, combined treatment compared to doxorubicin alone: A549; for MDM2 level, single agent: 0.2 µM derivative alone or 14 µM doxorubicin alone; for MDM2 level, combined treatment compared to doxorubicin alone: 0.2 µM derivative plus 14 µM doxorubicin; for MDM2 modulation, dose–response: A549, 24 h, 0.01, 0.1, 1, 10 µM
Description: as §1

p21 = assay: Western blot of p21 level in A549 cells; type: cell-based, human; details: for p21 level, single agent / p21 level, combined treatment compared to doxorubicin alone: A549; for p21 level, single agent: 0.2 µM derivative alone or 14 µM doxorubicin alone; for p21 level, combined treatment compared to doxorubicin alone: 0.2 µM derivative plus 14 µM doxorubicin
Description: as §1

HepG2 (liver) = assay: MTT antiproliferative assay, HepG2; type: cell-based; details: Homo sapiens, 72 h treatment, mean ± SD of 5–6 data
Description: (§2) Human tumor cell lines A2780 [ovary, adenocarcinoma, accession number HTL98008, obtained from Interlab Cell Line Collection (ICLC), Genova, Italy], A549 (lung, carcinoma, HTL03001, ICLC), MDA-MB-453 (breast, carcinoma, HTL01013, ICLC), and HepG2 (liver, carcinoma, HB-8065, American Type Culture Collection, Rockville, MA, USA ) were plated at 1.4 × 10^4/ml, 0.65 × 10^4/mL, 4.7 × 10^4/mL, and 1.0 × 10^4/mL, respectively, in 180 μL complete medium (RPMI 1640 for A2780 and A549 and DMEM for MDA-MB-453 and HepG2) into flat-bottomed 96-well microtiter plates. After 6–8 h cells were treated with 20 μL containing five 1:10 fold concentrations of our compounds diluted in FCS containing 3% DMSO. As normal non-cancer cell targets we used peripheral blood lymphocytes obtained from three healthy volunteers, isolated by gradient centrifugation (Lympholyte-H Cell Separation Media, EuroClone, Pero, MI, Italy) and stimulated with 1% phytohemagglutinin and 100 U/ml recombinant IL-2. One week after stimulation cells were ready for use at 15,000/well.
(§3) In both cases, after 72 h treatment, the MTT assay was applied as described elsewhere. The IC50 values were calculated from the analysis of single concentration–response curves, each final value is the mean of 5–6 experiments. IC100 and IC75 were extrapolated from the mean concentration–response curves.

activated PBL = assay: MTT assay on normal PBL activated with PHA and recombinant IL-2; type: cell-based; details: Homo sapiens, mean ± SD of 4–6 IC50 values
Description: as §2
In both cases, after 72 h treatment, the MTT assay was applied as described elsewhere. […] IC100 and IC75 were extrapolated from the mean concentration–response curves.

A2780 (ovarian) = assay: MTT antiproliferative assay, A2780; type: cell-based; details: Homo sapiens, 72 h treatment, mean ± SD of 5–6 data
Description: as §2, §3

[2] = test system: MDA-MB-453 (breast; mutant p53); assay: MTT antiproliferative assay, MDA-MB-453; type: cell-based; details: Homo sapiens; MDA-MB-453, MTT, 72 h treatment, mean ± SD of 5–6 data
Description: as §2, §3

A549 (lung) = assay: MTT antiproliferative assay, A549; type: cell-based; details: Homo sapiens, 72 h treatment, mean ± SD of 5–6 data
Description: as §2, §3

SMILES: Cc1c(C(=O)C2C(c3ccco3)C3CSCN3C23C(=O)Nc2ccccc23)cnn1-c1ccccc1 (centres unmarked) [8b, 7'-(Furan-2-yl)-6'-(5-methyl-1-phenyl-1H-pyrazole-4-carbonyl)-3',6',7',7a'-tetrahydro-1'H-spiro[indoline-3,5'-pyrrolo[1,2-c]thiazol]-2-one]
- IC50 [1]: ≥ 30 µM
- apoptotic activity (A549 cells): significantly trigger apoptosis
- apoptotic activity (A549 cells; listed as 8t): highly significant apoptotic activity
- melting point: 227 to 228 °C
- p53 level (p53): significantly increased; also recorded: able to activate p53
- MDM2 level (MDM2): an increase
- p21 level (p21; A549, drug concentration equivalent to IC75 (30 µM), fold over mock): an increase

SMILES: Cc1c(C(=O)C2C(c3ccc(Cl)cc3Cl)C3CSCN3C23C(=O)Nc2ccccc23)cnn1-c1ccccc1 (centres unmarked) [8h, 7'-(2,4-Dichlorophenyl)-6'-(5-methyl-1-phenyl-1H-pyrazole-4-carbonyl)-1',6',7',7a'-tetrahydro-3'H-spiro[indoline-3,5'-pyrrolo[1,2-c]thiazol]-2-one]
- apoptotic activity (A549 cells): slightly trigger apoptosis
- melting point: 141 to 142 °C
- p53 induction, dose–response (p53): able to induce p53 only at high concentrations; also recorded: induce p53, although not at high level and only at high concentrations
- p53 level, single agent (p53): did not increase
- p53 level, combined treatment compared to doxorubicin alone (p53): no further increases; also recorded: did not trigger a further
- MDM2 level, single agent (MDM2): slight but not significant MDM2 increase
- MDM2 level, combined treatment compared to doxorubicin alone (MDM2): no further increases; also recorded: did not trigger a further
- IC50 (HepG2 (liver)): 18.6 µM
- IC50 (activated PBL; PBL A): 53.6 ± 2.1 µM
- IC50 (activated PBL; PBL B): 57.4 ± 5.5 µM
- IC50 (activated PBL; PBL C): 65.8 ± 23.2 µM
- p21 level, single agent (p21): did not increase
- p21 level, combined treatment compared to doxorubicin alone (p21): no further increases
- IC50 (A2780 (ovarian)): 10.3 µM

SMILES: Cc1c(C(=O)C2C(c3cccc(F)c3)C3CSCN3C23C(=O)Nc2ccccc23)cnn1-c1ccccc1 (centres unmarked) [8j, 7'-(3-Fluorophenyl)-6'-(5-methyl-1-phenyl-1H-pyrazole-4-carbonyl)-1',6',7',7a'-tetrahydro-3'H-spiro[indoline-3,5'-pyrrolo[1,2-c]thiazol]-2-one]
- apoptotic activity (A549 cells): slightly trigger apoptosis
- melting point: 125 to 126 °C
- p53 induction, dose–response (p53): able to induce p53 only at high concentrations; also recorded: induce p53, although not at high level and only at high concentrations
- p53 level, single agent (p53): did not increase
- p53 level, combined treatment compared to doxorubicin alone (p53): no further increases; also recorded: did not trigger a further
- MDM2 level, single agent (MDM2): slight but not significant MDM2 increase
- MDM2 level, combined treatment compared to doxorubicin alone (MDM2): no further increases; also recorded: did not trigger a further
- IC50 (activated PBL; PBL A): 54 ± 2.5 µM
- IC50 (activated PBL; PBL B): 55 ± 3.3 µM
- IC50 (activated PBL; PBL C): 61.2 ± 19.7 µM
- p21 level, single agent (p21): did not increase
- p21 level, combined treatment compared to doxorubicin alone (p21): no further increases

SMILES: Cc1c(C(=O)C2C(c3ccc(C(F)(F)F)cc3)C3CSCN3C23C(=O)Nc2ccccc23)cnn1-c1ccccc1 (centres unmarked) [8k, 6'-(5-Methyl-1-phenyl-1H-pyrazole-4-carbonyl)-7'-(4-(trifluoromethyl)phenyl)-1',6',7',7a'-tetrahydro-3'H-spiro[indoline-3,5'-pyrrolo[1,2-c]thiazol]-2-one]
- IC50 [2]: 21.4 µM
- apoptotic activity (A549 cells): highly significant apoptotic activity; also recorded: considerable high level of apoptosis
- melting point: 138 to 139 °C
- p53 level (p53): did not induce any changes; also recorded: did not induce p53
- p53 level, single agent (p53): did not increase
- p53 level, combined treatment compared to doxorubicin alone (p53): no further increases
- MDM2 modulation, dose–response (MDM2): induced MDM2 down regulation at any concentration; also recorded: dose-dependent down regulation of MDM2
- MDM2 level (MDM2): downmodulated MDM2; also recorded: clear down modulation; also recorded: down regulation of MDM2
- MDM2 level, single agent (MDM2): slight but not significant MDM2 increase
- MDM2 level, combined treatment compared to doxorubicin alone (MDM2): no further increases
- IC50 (activated PBL; PBL A): 49.8 ± 3.2 µM
- IC50 (activated PBL; PBL B): 55.3 ± 1.4 µM
- IC50 (activated PBL; PBL C): 50.9 ± 1.2 µM
- p21 level, single agent (p21): did not increase
- p21 level, combined treatment compared to doxorubicin alone (p21): no further increases

SMILES: Cc1c(C(=O)C2C(c3ccccn3)C3CSCN3C23C(=O)Nc2ccccc23)cnn1-c1ccccc1 (centres unmarked) [8l, 6'-(5-Methyl-1-phenyl-1H-pyrazole-4-carbonyl)-7'-(pyridin-2-yl)-3',6',7',7a'-tetrahydro-1'H-spiro[indoline-3,5'-pyrrolo[1,2-c]thiazol]-2-one]
- IC50 [1]: ≥ 30 µM
- melting point: 135 to 136 °C

SMILES: Cc1c(C(=O)C2C(c3cccc(Br)c3)C3CSCN3C23C(=O)Nc2ccccc23)cnn1-c1ccccc1 (centres unmarked) [8m, 7'-(3-Bromophenyl)-6'-(5-methyl-1-phenyl-1H-pyrazole-4-carbonyl)-3',6',7',7a'-tetrahydro-1'H-spiro[indoline-3,5'-pyrrolo[1,2-c]thiazol]-2-one]
- apoptotic activity (A549 cells): highly significant apoptotic activity; also recorded: considerable high level of apoptosis
- melting point: 132 to 133 °C
- p53 level (p53): did not induce any changes; also recorded: did not induce p53
- MDM2 modulation, dose–response (MDM2): dose-dependent down regulation of MDM2
- MDM2 level (MDM2): downmodulated MDM2; also recorded: clear down modulation; also recorded: down regulation of MDM2
- IC50 (A549 (lung)): 17.7 µM
- IC50 (activated PBL; PBL A): 48.8 ± 4.9 µM
- IC50 (activated PBL; PBL B): 36.1 ± 14.7 µM
- IC50 (activated PBL; PBL C): 68.1 ± 23.8 µM
